Assay results published in patent US8952054B2, “Small molecule inhibitors of MUC1 and methods of identifying the same” (Dana-Farber Cancer Institute, Inc., priority 2010, dated 2015).

What was measured:
[1] = test system: MUC1-expressing cancer cells; test: Secondary screen against MUC1-expressing cancer cells in vitro; assay type: cell-based; conditions: legend: ZR-75-1 breast carcinoma cells, 2 days, anti-MUC1-C immunoblot
Procedure: ZR-75-1 breast carcinoma cells were treated with […] Kaempterol for 2 days. Total cell lysates were then analyzed by immunoblotting with anti-MUC1-C antibody (FIG. 17A) or with anti-Actin antibodies (FIG. 17B).
Initial screens were performed in the presence of compounds at a concentration of 100 μM.

MUC1 = MUC1 mRNA (qRT-PCR) and MUC1-C protein (immunoblot) in MCF-7 cells; assay type: cell-based, human; conditions: for MUC1 mRNA levels: MCF-7, 75 μM, 3 d, qRT-PCR; for MUC1-C protein in the nucleus / MUC1-C protein in whole cell lysates: MCF-7, 3 days
Procedure: FIGS. 14A-E—Apigenin suppresses MUC1 expression in MCF-7 cells. (FIG. 14A) MCF-7 cells were treated with DMSO vehicle, 75 μM apigenin or 75 μM baicalein for 3 d. Total RNA was assayed for MUC1 mRNA levels by qRTPCR. The results (mean+SD of 3 determinations) are expressed as relative MUC1 mRNA levels as compared to that obtained in cells treated with DMSO. (FIGS. 14B-C) MCF-7 cells were treated with the indicated concentrations of apigenin and baicalein for 3 days. Nuclear (FIG. 14B) and whole cell lysates (FIG. 14C) were immunoblotted with the indicated antibodies. D. Lysates from MCF-7 cells were infected to stably express a control lentivirus and one with a MUC1 shRNA were immunoblotted with the indicated antibodies. (FIG. 14E) The indicated MCF-7 cells were treated with […] apigenin for 3 d. Viable cell number was determined by the MTS assay. The results (mean+SD of 3 determinations) are expressed as percentage of control growth in the presence of DMSO.

MUC1-C = target: T1, MUC1-C (Homo sapiens, UniProt P15941); test: Immunoblot of MUC1-C levels in MCF-10A cells (flavones); assay type: cell-based; design: endogenous in cells; conditions: 50 to 100 μM, 3 d then additional 3 d
T1 sequence (P15941 1098-1255 limits assumed): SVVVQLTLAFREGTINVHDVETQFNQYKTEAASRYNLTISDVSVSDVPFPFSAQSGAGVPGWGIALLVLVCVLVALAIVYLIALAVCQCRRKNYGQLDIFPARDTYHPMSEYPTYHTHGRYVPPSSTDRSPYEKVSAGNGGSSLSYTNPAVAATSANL
Procedure: FIGS. 13A-D—Apigenin downregulates MUC1 and confers death of MCF-10A cells. (FIG. 13A) MCF-10A cells were treated with the indicated concentrations of apigenin and baicalein for 3 d, washed and then treated for an additional 3 d. Lysates were immunoblotted with the indicated antibodies. (FIG. 13B) MCF-10A cells were treated with the indicated concentrations apigenin (circles) and baicalein (squares) for 3 d. Viable cell number was determined by the MTS assay. The results (mean+SD of 3 determinations) are expressed as percentage of control growth in the presence of DMSO. (FIG. 13C) MCF-10A cells were treated with DMSO, 75 μM apigenin or 75 μM baicalein for 3 d. Lysates were subjected to immunoblotting with the indicated antibodies. (FIG. 13D) MCF-10A cells were treated with DMSO, 75 μM apigenin or 75 μM baicalein for 3 d, stained with propidium iodide and analyzed by flow cytometry.

CYP2C9 = CYP2C9 (Homo sapiens, UniProt P11712); conditions: cited from earlier work
CYP2C9, sequence (P11712 whole entry, species assumed): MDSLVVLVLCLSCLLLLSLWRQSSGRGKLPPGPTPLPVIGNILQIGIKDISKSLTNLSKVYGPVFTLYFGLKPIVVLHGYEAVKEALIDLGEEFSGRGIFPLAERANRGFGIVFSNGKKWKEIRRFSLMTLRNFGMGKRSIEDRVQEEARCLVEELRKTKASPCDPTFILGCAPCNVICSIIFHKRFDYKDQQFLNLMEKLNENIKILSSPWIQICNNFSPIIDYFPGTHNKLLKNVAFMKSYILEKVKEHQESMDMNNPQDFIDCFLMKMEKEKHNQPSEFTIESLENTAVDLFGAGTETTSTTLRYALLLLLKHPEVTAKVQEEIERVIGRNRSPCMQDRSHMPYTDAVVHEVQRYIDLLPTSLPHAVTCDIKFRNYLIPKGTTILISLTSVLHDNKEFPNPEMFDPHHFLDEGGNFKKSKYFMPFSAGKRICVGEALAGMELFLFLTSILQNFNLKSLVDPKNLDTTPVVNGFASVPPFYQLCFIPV

ZR-75-1 cells = test: Cell cycle distribution, apoptosis and necrosis by flow cytometry, ZR-75-1; assay type: cell-based, human; conditions: ZR-75-1, 5 μM; for necrosis (propidium iodide): detectable at 72 h, more prominent at 96 h
Procedure: FIGS. 3A-D. MUC1/CQC peptide induces S phase arrest and necrosis. ZR-75-1 (FIGS. 2A-B) and MCF-7 (FIGS. 2C-D) cells were treated with 5 μM MUC1/CQC or MUC1/AQA for 3 and 4 d. Cells were fixed and analyzed for cell cycle distribution by flow cytometry (FIGS. 2A and 2C). The percentage of cells in G1, S and G2/M phases is included in the panels. Cells were also stained with propidium iodide and analyzed by flow cytometry for necrosis (FIGS. 2B and 2D). The percentage of necrotic cells is included in the panels.
Cells were harvested, washed with PBS, fixed with 80% ethanol, and incubated in PBS containing 40 μg/ml RNAse and 40 μg/ml propidium iodide for 30 min at 37° C. Cell cycle distribution was determined by flow cytometry. Sub-G1 DNA content was assessed by staining ethanol-fixed and citrate buffer-permeabilized cells with propidium iodide and monitoring by flow cytometry as described (Yin et al., 2007). For assessment of necrosis, cells were incubated with 1 μg/ml propidium iodide/PBS for 5 min at room temperature and then monitored by flow cytometry as described (Yin et al., 2007).

[2] = test system: ZR-75-1 breast tumor xenografts; test: ZR-75-1 breast tumor xenografts in nude mice; assay type: in vivo, Balb-c nu/nu mice
Procedure: FIGS. 5A-C. MUC1/CQC peptide blocks growth of ZR-75-1 breast tumor xenografts. (FIG. 5A) Four to six week-old female Balb-c nu/nu mice were implanted with 17-β-estradiol plugs. After 24 h, ZR-75-1 breast cancer cells (imbedded in matrigel) were injected subcutaneously in the flank. When tumors were ˜150 mm3, the mice were paired matched into groups and injected intraperitoneally with PBS (vehicle control; closed squares), 50 mg/kg MUC1/AQA peptide (control peptide; open squares) or 10 mg/kg MUC1/CQC peptide (closed triangles) daily for 21 d. Another group was treated with 50 mg/kg MUC1/CQC peptide daily for 6 d (open triangles). Mice were weighed twice weekly and tumor measurements were performed every 4 d. (FIGS. 5B and 5C). On day 24 (asterisk), tumors harvested from the control group and the group treated with 50 mg/kg/d×6 d were stained with H&E (FIG. 5B) and with an antibody against MUC1 (FIG. 5C).
To determine if administration of the MUC1/CQC peptide is associated with effects on body weight, five female nude (nu/nu) mice were injected intraperitoneally (IP) once each day at a dose of 50 mg/kg. […] To assess anti-tumor activity, ZR-75-1 cells (1×10^7) were implanted subcutaneously into the flanks of nude mice. After 12 d, mice bearing tumors of approximately 150 mm^3 were treated with the MUC1/CQC peptide at doses of 10 and 50 mg/kg/d. As controls, mice were treated with vehicle alone or with the MUC1/AQA peptide. Administration of the MUC1/CQC peptide at 10 mg/kg/d×21 d slowed growth as compared to that obtained with the MUC1/AQA peptide given at 50 mg/kg/d (FIG. 5A). […] Consequently, treatment was stopped and the mice were monitored for regrowth. […] To assess in part the basis for the activity, tumors harvested from control and treated mice were examined by histopathology. […] Sections of the tumors were also stained with an antibody against MUC1.

| Compound | inhibition (FIGS. 17A-B) [1] | MUC1 mRNA levels (MUC1) | MUC1-C protein in the nucleus (MUC1) | MUC1-C protein in whole cell lysates (MUC1) | MUC1-C levels (MUC1-C) | inhibition of CYP2C9 (CYP2C9) | sub-G1 DNA content (apoptosis) (ZR-75-1 cells) | cell cycle distribution (ZR-75-1 cells; 72 h) | cell cycle distribution (ZR-75-1 cells; 96 h) | necrosis (propidium iodide) (ZR-75-1 cells) | tumor growth ([2]; 10 mg/kg/d × 21 d IP, versus MUC1/AQA 50 mg/kg/d) | tumor growth ([2]; 50 mg/kg/d IP, initial 7 d of treatment) | tumor regrowth after treatment stopped ([2]; 50 mg/kg/d group, next 17 d) | tumor histopathology (H&E) ([2]; 10 and 50 mg/kg, versus vehicle or MUC1/AQA) | MUC1 expression in tumor sections (antibody staining) ([2]; versus control tumors) |
| --- | --- | --- | --- | --- | --- | --- | --- | --- | --- | --- | --- | --- | --- | --- | --- |
| O=c1cc(-c2ccccc2)oc2cc(O)c(O)c(O)c12 [Baicalein, 5,6,7-trihydroxyflavone, reference compound] | did not | no apparent effect | not | not | no apparent effect | – | – | – | – | – | – | – | – | – | – |
| O=c1cc(-c2ccc(O)cc2)oc2cc(O)cc(O)c12 [Apigenin, 4′,5,7-trihydroxyflavone] | showed inhibition | downregulation of MUC1 mRNA levels | decreased expression of the MUC1-C protein | decreased expression of the MUC1-C protein | downregulation of MUC1-C levels | potent inhibitor | – | – | – | – | – | – | – | – | – |
| CC[C@H](C)[C@H](NC(=O)[C@H](CC(=O)O)NC(=O)[C@H](CC(C)C)NC(=O)[C@H](CCC(N)=O)NC(=O)CNC(=O)[C@H](Cc1ccc(O)cc1)NC(=O)[C@H](CC(N)=O)NC(=O)[C@H](CCCCN)NC(=O)[C@H](CCCNC(=N)N)NC(=O)[C@H](CCCNC(=N)N)NC(=O)[C@H](CS)NC(=O)[C@H](CCC(N)=O)NC(=O)[C@H](CS)NC(=O)[C@@H](CCCNC(=N)N)NC(=O)[C@@H](CCCNC(=N)N)NC(=O)[C@@H](CCCNC(=N)N)NC(=O)[C@@H](CCCNC(=N)N)NC(=O)[C@@H](CCCNC(=N)N)NC(=O)[C@@H](CCCNC(=N)N)NC(=O)[C@@H](CCCNC(=N)N)NC(=O)[C@@H](CCCNC(=N)N)NC(=O)[C@H](N)CCCNC(=N)N)C(=O)N[C@@H](Cc1ccccc1)C(=O)N1CCC[C@H]1C(=O)O [MUC1/CQC] | – | – | – | – | – | – | little if any accumulation of cells with sub-G1 DNA content | substantial arrest in S phase | S phase population was decreased | induction of necrosis | slowed growth | blocked growth | no detectable growth | markedly necrotic | – |
| MUC1/AQA: control peptide in which the CQC motif was altered to AQA (SEQ ID NO: 11) (AQARRKNYGQLDIFP) [reference compound] | – | – | – | – | – | – | – | – | – | not | – | – | – | – | marked down-regulation of MUC1 expression |
